The values below come from ChEMBL document CHEMBL2311249, “Development of inhibitors of the PAS-B domain of the HIF-2α transcription factor” (J Med Chem, 2013).

Molecules are shown by their SMILES.

The target in experiment [1] is Aryl hydrocarbon receptor nuclear translocator/Endothelial PAS domain-containing protein 1 (Homo sapiens, UniProt P27540+Q99814). Kind of experiment: (§1) Inhibition of GST-tagged PAS-B domain of HIF-2alpha-Flag-tagged PAS-B domain of ARNT heterodimerization (unknown origin) by luminescence proximity assay. Format: protein assay.
Aryl hydrocarbon receptor nuclear translocator/Endothelial PAS domain-containing protein 1 (Homo sapiens, UniProt P27540+Q99814), sequence (P27540 whole entry, the tested form may be a part): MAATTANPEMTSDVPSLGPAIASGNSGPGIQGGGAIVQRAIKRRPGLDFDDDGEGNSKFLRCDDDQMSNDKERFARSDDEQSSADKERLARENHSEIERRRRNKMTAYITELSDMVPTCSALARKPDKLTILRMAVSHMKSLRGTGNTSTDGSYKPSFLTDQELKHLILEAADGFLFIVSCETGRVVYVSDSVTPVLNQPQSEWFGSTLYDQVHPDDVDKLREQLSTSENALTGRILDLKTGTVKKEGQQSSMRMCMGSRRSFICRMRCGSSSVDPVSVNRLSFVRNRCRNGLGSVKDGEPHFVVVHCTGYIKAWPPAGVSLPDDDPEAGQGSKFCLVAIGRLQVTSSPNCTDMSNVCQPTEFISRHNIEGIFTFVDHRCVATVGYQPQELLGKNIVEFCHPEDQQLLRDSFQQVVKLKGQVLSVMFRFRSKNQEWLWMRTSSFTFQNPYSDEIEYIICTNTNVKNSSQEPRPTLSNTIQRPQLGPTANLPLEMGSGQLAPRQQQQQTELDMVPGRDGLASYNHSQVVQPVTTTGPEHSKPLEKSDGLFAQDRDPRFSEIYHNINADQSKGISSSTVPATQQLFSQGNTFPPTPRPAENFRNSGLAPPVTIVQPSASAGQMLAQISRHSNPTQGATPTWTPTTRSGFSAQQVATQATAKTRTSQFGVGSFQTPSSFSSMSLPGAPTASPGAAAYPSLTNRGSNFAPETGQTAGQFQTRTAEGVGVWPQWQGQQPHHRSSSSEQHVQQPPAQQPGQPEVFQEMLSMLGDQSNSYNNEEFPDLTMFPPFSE
Aryl hydrocarbon receptor nuclear translocator/Endothelial PAS domain-containing protein 1 (Homo sapiens, UniProt P27540+Q99814), sequence (Q99814 whole entry, the tested form may be a part): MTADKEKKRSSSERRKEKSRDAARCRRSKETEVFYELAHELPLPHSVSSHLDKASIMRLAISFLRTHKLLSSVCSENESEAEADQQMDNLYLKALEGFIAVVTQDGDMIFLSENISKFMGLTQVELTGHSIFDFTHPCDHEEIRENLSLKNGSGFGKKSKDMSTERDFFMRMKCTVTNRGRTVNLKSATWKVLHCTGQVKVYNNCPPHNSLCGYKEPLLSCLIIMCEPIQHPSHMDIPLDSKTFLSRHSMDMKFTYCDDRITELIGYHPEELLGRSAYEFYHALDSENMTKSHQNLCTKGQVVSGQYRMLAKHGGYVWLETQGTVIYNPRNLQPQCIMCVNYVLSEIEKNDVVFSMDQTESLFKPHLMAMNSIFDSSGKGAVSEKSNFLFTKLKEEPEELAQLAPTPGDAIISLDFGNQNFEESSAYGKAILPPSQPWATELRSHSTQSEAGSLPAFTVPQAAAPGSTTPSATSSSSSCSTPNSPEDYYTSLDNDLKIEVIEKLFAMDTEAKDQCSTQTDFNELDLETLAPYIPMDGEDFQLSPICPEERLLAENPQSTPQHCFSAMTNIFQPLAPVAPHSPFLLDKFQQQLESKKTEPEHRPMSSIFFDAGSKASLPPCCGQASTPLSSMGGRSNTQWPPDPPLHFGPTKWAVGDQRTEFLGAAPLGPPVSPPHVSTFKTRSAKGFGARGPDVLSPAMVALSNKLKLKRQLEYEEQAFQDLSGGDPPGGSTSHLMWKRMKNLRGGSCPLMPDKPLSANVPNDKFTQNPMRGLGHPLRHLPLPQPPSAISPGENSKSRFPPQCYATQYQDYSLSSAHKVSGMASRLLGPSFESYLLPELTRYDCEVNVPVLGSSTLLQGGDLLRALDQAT
Experiment [2] concerns the target Aryl hydrocarbon receptor nuclear translocator/Endothelial PAS domain-containing protein 1 (Homo sapiens, UniProt Q99814). Described as §1. The format is protein assay.
Experiment [3] addresses Endothelial PAS domain-containing protein 1 (Homo sapiens, UniProt Q99814). Kind of experiment: Binding affinity to wild type PAS-B domain of HIF-2alpha (unknown origin) by isothermal calorimetry analysis.

Endothelial PAS domain-containing protein 1, sequence (Q99814 whole entry, the tested form may be a part): as above
Aryl hydrocarbon receptor nuclear translocator/Endothelial PAS domain-containing protein 1 (Homo sapiens, UniProt Q99814), sequence (P27540 whole entry, the tested form may be a part): as the sequence (P27540 whole entry, the tested form may be a part) above
Aryl hydrocarbon receptor nuclear translocator/Endothelial PAS domain-containing protein 1 (Homo sapiens, UniProt Q99814), sequence (Q99814 whole entry, the tested form may be a part): as the sequence (Q99814 whole entry, the tested form may be a part) above

Take `O=[N+]([O-])c1c(Nc2ccc(Cl)cc2)ccc2nonc12`: the IC50 entry in experiment [1] is reported as “Not Active”.

In the case of `O=C1C=CC(=O)N1c1c(Nc2cc(F)cc(Cl)c2)ccc2nonc12`, the IC50 result in experiment [1] is “Not Active”.

In turn, `O=[N+]([O-])c1c(NCc2cc(F)ccc2F)ccc2nonc12` returned an IC50 in experiment [2] of more than 10 µM.

For `Fc1cc(Cl)cc(Nc2ccc3nonc3c2)c1`, the Kd in experiment [3] was 3 µM. In addition, in experiment [1], the IC50 result is on record as “Not Active”.

With `O=[N+]([O-])c1c(NCc2ccc(Cl)cc2)ccc2nonc12`, in experiment [1], the IC50 entry is listed as “Not Active”.

As to `CNS(=O)(=O)c1c(Nc2cc(F)cc(Cl)c2)ccc2nonc12`, the IC50 entry in experiment [1] is “Not Active”.

`O=[N+]([O-])c1c(Nc2ccc(Cl)c(Cl)c2)ccc2nonc12`: it took 0.12 µM to reach half-maximal inhibition in experiment [2] (IC50).

Turning to `O=[N+]([O-])c1c(NCc2cc(F)ccc2C(F)(F)F)ccc2nonc12`, the IC50 result in experiment [1] is “Not Active”.

Take `O=[N+]([O-])c1cccc(Nc2ccc3nonc3c2[N+](=O)[O-])c1`: in experiment [3], binding was characterised by a dissociation constant (Kd) of 3 µM. Further, the IC50 in experiment [2] is 2.8 µM.

As for `O=[N+]([O-])c1ccccc1Nc1cc(F)cc(Cl)c1`, in experiment [3], the Kd worked out at 4.3 µM. Besides, the IC50 entry in experiment [1] is on record as “Not Active”.

`O=[N+]([O-])c1c(NCc2cc(F)cc(Cl)c2)ccc2nonc12` displayed an IC50 in experiment [2] of 2 µM.

With `COc1cccc(Nc2ccc3nonc3c2[N+](=O)[O-])c1`, in experiment [1], the IC50 entry was “Not Active”.

As to `O=[N+]([O-])c1c(Nc2cccc(Cl)c2)ccc2nonc12`, the midpoint of inhibition in experiment [2], the IC50, lay at 0.18 µM.

Regarding `CC(=O)Nc1c(Nc2cc(F)cc(Cl)c2)ccc2nonc12`, the IC50 entry in experiment [1] is “Not Active”.

As for `O=[N+]([O-])c1c(Oc2cc(F)cc(Cl)c2)ccc2nonc12`, in experiment [1], the concentration for half-maximal inhibition (IC50) entry was “Not Active”.

For the compound `O=[N+]([O-])c1c(Nc2cccc(C(F)(F)F)c2)ccc2nonc12`, in experiment [2], the half-maximal inhibitory concentration (IC50) turned out to be 0.46 µM.

For the compound `CN(c1cc(F)cc(Cl)c1)c1ccc2nonc2c1[N+](=O)[O-]`, the Kd in experiment [3] is more than 10 µM. For the same compound, the IC50 in experiment [2] is more than 3 µM.

In turn, `O=[N+]([O-])c1c(Nc2ccc(F)c(Cl)c2)ccc2nonc12` showed a Kd in experiment [3] of 0.4 µM. Besides, the concentration for half-maximal inhibition (IC50) in experiment [2] came out at 0.17 µM.

`O=[N+]([O-])c1c(NCc2ccc(F)cc2Cl)ccc2nonc12`: in experiment [2], the midpoint of inhibition, the IC50, lay at 0.33 µM. This lies in the sub-micromolar range.

Turning to `O=[N+]([O-])c1c(Nc2cccc(F)c2)ccc2nonc12`, in experiment [3], the Kd was 2.2 µM. In experiment [2], this compound registered an IC50 of 2.1 µM.

For `O=[N+]([O-])c1c(Nc2ccc(Br)cc2)ccc2nonc12`, the IC50 result in experiment [1] is on record as “Not Active”.

Compound `O=[N+]([O-])c1c(Nc2ccc(Cl)c(C(F)(F)F)c2)ccc2nonc12` showed a dissociation constant Kd in experiment [3] of 0.17 µM. The same compound gave an IC50 in experiment [2] of 0.09 µM.

As for `O=[N+]([O-])c1c(Sc2ccccc2)ccc2nonc12`, the 50% inhibitory concentration (IC50) result in experiment [1] is on record as “Not Active”.

`O=[N+]([O-])c1c(NCc2ccccc2)ccc2nonc12` yielded a 50% inhibitory concentration (IC50) in experiment [2] of more than 5 µM.

As to `Cc1ccc(CNc2ccc3nonc3c2[N+](=O)[O-])cc1`, in experiment [1], the concentration for half-maximal inhibition (IC50) result was “Not Active”.

In turn, `O=[N+]([O-])c1c(Nc2cccc(Cl)c2F)ccc2nonc12` returned a half-maximal inhibitory concentration (IC50) in experiment [2] of 0.76 µM.

With `O=[N+]([O-])c1c(Nc2ccc(F)cc2)ccc2nonc12`, the IC50 entry in experiment [1] is listed as “Not Active”.

Turning to `O=[N+]([O-])c1c(NCc2c(F)cccc2Cl)ccc2nonc12`, the IC50 entry in experiment [1] is given as “Not Active”.

Regarding `O=[N+]([O-])c1c(Sc2cc(F)cc(Cl)c2)ccc2nonc12`, in experiment [1], the IC50 entry is listed as “Not Active”.

In experiment [3], `O=[N+]([O-])c1c(Nc2cc(F)cc(Cl)c2)ccc2nonc12` had a Kd of 0.09 µM. In addition, in experiment [2], inhibition was half-maximal at 0.1 µM (IC50).

`O=C(CCl)Nc1c(Nc2cc(F)cc(Cl)c2)ccc2nonc12`: the IC50 result in experiment [1] is recorded as “Not Active”.

In experiment [3], `Nc1c(Nc2cc(F)cc(Cl)c2)ccc2nonc12` gave a Kd of 6 µM. The IC50 in experiment [2] is more than 30 µM.

Regarding `O=[N+]([O-])c1c(Nc2ccc(C(F)(F)F)cc2Cl)ccc2nonc12`, the IC50 entry in experiment [1] was “Not Active”.

On to `Nc1nc2ccc(Nc3cc(F)cc(Cl)c3)c([N+](=O)[O-])c2[nH]1`, for which the IC50 in experiment [2] was more than 2 µM.

Consider `O=[N+]([O-])c1cc(Nc2ccc3nonc3c2[N+](=O)[O-])ccc1Cl`, for which, in experiment [2], the midpoint of inhibition, the IC50, lay at 0.4 µM.

As to `O=[N+]([O-])c1c(Nc2cc(F)cc(Cl)c2)ccc2[nH]cnc12`, the IC50 in experiment [2] was less than 5 µM.

`O=[N+]([O-])c1c(Nc2cc(F)cc(F)c2)ccc2nonc12` gave a Kd in experiment [3] of 0.73 µM. The compound further gave an IC50 in experiment [2] of 2 µM.

Consider `O=[N+]([O-])c1c(Nc2cccc(F)c2Cl)ccc2nonc12`, for which, in experiment [1], the IC50 result is given as “Not Active”.

As for `O=[N+]([O-])c1c(Nc2cc(F)cc(C(F)(F)F)c2)ccc2nonc12`, in experiment [2], the midpoint of inhibition, the IC50, lay at 0.43 µM.

Consider `O=[N+]([O-])c1c(Nc2cc(F)cc(Cl)c2)ccc2nn[nH]c12`, for which the Kd in experiment [3] was more than 20 µM. The IC50 in experiment [2] was more than 10 µM.

`CN(C)S(=O)(=O)c1c(Nc2cc(F)cc(Cl)c2)ccc2nonc12`: in experiment [1], the IC50 result is on record as “Not Active”.

On to `O=[N+]([O-])c1c(NCc2ccc(F)cc2C(F)(F)F)ccc2nonc12`, for which the Kd in experiment [3] was determined as 0.54 µM. The IC50 in experiment [2] is 0.5 µM.

As for `O=[N+]([O-])c1c(Sc2cccc(F)c2)ccc2nonc12`, the IC50 result in experiment [1] is “Not Active”.
